Source: ChEMBL document CHEMBL3603840, “Discovery of non-competitive thrombin inhibitor derived from competitive tryptase inhibitor skeleton: Shift in molecular recognition resulted from skeletal conversion of carboxylate into phosphonate” (Bioorg Med Chem Lett, 2015)
Activity calls are given as the source filed them. The rule behind the calls is not given here.

Tests used:
Tryptase [1] = molecular target: T1, Tryptase (Homo sapiens, UniProt Q9BZJ3+Q15661+Q9NRR2); experiment: Inhibition of tryptase (unknown origin) using t-Boc-Phe-Ser-Arg-MCA as substrate at 10 uM after 5 mins by fluorimetric analysis; format: protein assay
Prothrombin [2] = molecular target: T2, Prothrombin (Homo sapiens, UniProt P00734); experiment: Inhibition of thrombin (unknown origin) using t-Boc-Val-Pro-Arg-MCA as substrate at 10 uM after 5 mins by fluorimetric analysis
Trypsin [3] = molecular target: T3, Trypsin (Homo sapiens, UniProt P07477+P07478+P35030); experiment: Inhibition of trypsin (unknown origin) using Bz-Arg-pNA.HCl as substrate at 10 uM after 5 mins by colorimetric analysis; format: protein assay
Tryptase [4] = molecular target: T1, Tryptase; experiment: Inhibition of tryptase (unknown origin) using t-Boc-Phe-Ser-Arg-MCA as substrate after 5 mins by fluorimetric analysis; format: protein assay
Prothrombin [5] = molecular target: T2, Prothrombin; experiment: Inhibition of thrombin (unknown origin) using t-Boc-Val-Pro-Arg-MCA as substrate after 5 mins by fluorimetric analysis
Trypsin [6] = molecular target: T3, Trypsin; experiment: Inhibition of trypsin (unknown origin) using Bz-Arg-pNA.HCl as substrate after 5 mins by colorimetric analysis; format: protein assay
Prothrombin [7] = molecular target: T2, Prothrombin; experiment: Competitive inhibition of thrombin (unknown origin) using t-Boc-Val-Pro-Arg-MCA as substrate by Lineweaver-Burk plot analysis
Prothrombin [8] = molecular target: T2, Prothrombin; experiment: Non-competitive inhibition of thrombin (unknown origin) using t-Boc-Val-Pro-Arg-MCA as substrate by Lineweaver-Burk plot analysis

CCOP(=O)(Cc1ccc(N)nc1)Oc1ccc2c(c1)C(=O)N(C)C2=O (stereo not given)
inhibition (Tryptase [1]): 5.3%
inhibition (Prothrombin [2]): 59%
inhibition (Trypsin [3]): inactive

CN1C(=O)c2ccc(NC(CCc3ccc(N)nc3)P(=O)(Oc3ccccc3)Oc3ccccc3)cc2C1=O (stereo not given)
inhibition (Tryptase [1]): inactive
inhibition (Prothrombin [2]): inactive
inhibition (Trypsin [3]): inactive

CC(C)N1C(=O)c2ccc(NC(CCc3ccc(N)nc3)P(=O)(Oc3ccccc3)Oc3ccccc3)cc2C1=O (stereo not given)
inhibition (Tryptase [1]): inactive
inhibition (Prothrombin [2]): inactive
inhibition (Trypsin [3]): inactive

CN1C(=O)c2ccc(OC(=O)CCc3ccc(N)nc3)cc2C1=O.Cl
inhibition (Tryptase [1]): 98%
IC50 (Tryptase [4]): 0.19 µM
inhibition (Prothrombin [2]): 70%
IC50 (Prothrombin [5]): 5.3 µM
inhibition (Trypsin [3]): 97%
IC50 (Trypsin [6]): 1.2 µM
inhibition (Prothrombin [7]): Active

CCOP(=O)(CCc1ccc(N)nc1)Oc1ccc2c(c1)C(=O)N(C)C2=O (stereo not given)
inhibition (Tryptase [1]): 11%
inhibition (Prothrombin [2]): 95%
inhibition (Trypsin [3]): inactive
inhibition (Prothrombin [8]): inactive
